{"source": "ChEMBL document CHEMBL4229343", "about": "“Perfluoroarene-based peptide macrocycles that inhibit the Nrf2/Keap1 interaction” (Bioorg Med Chem Lett, 2018)", "note": "*1 amine or outer side, *2 acyl side, *3 side chain or, on linkers, in order; H or OH if unused. Where a SMILES comes first, the peptide text is derived from it. Bridges are numbered along the chain shown (N, C = ends). C6F4(1,4-diyl) = Fc1c(F)c([*:2])c(F)c(F)c1[*:1]", "data": [{"molecular_target": "Kelch-like ECH-associated protein 1 (Homo sapiens, UniProt Q14145)", "sequence (Q14145 whole entry, the tested form may be a part)": "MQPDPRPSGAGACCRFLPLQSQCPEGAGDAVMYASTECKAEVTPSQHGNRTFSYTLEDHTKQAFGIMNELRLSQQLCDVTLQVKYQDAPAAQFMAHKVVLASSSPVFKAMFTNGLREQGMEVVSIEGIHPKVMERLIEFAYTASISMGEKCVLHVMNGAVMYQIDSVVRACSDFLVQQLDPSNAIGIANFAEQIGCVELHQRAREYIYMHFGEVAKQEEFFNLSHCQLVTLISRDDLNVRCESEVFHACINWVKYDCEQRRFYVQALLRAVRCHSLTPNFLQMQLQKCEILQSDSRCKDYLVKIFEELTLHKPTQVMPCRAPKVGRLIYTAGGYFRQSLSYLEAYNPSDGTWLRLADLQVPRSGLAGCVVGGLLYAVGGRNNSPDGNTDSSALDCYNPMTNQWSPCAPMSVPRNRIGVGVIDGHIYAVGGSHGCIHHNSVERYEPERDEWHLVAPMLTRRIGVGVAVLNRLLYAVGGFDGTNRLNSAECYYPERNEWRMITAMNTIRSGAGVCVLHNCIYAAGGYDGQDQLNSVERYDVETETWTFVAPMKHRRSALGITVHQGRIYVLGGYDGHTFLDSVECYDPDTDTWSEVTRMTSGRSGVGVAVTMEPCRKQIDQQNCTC", "test": "Displacement of F-14 from Keap1 Kelch domain (unknown origin) expressed in Escherichia coli BL21 (DE3) after 15 mins by fluorescence polarization assay", "units": {"Ki": "µM"}, "values": [{"smiles": "CC(=O)N[C@H]1CSSC[C@@H](C(N)=O)NC(=O)CNC(=O)[C@H]([C@@H](C)O)NC(=O)[C@H](CCC(=O)O)NC(=O)[C@H](CCC(=O)O)NC1=O", "note": "(Ac-CEETGC-NH2; disulfide 1-6)", "Ki": 151}]}, {"tested_on": "THP-1", "test": "Antiproliferative activity against human THP1 cells", "format": "cell-based", "values": [{"smiles": "CC(=O)N[C@H]1CSc2c(F)c(F)c(c(F)c2F)SC[C@@H](C(N)=O)NC(=O)[C@H](Cc2ccccc2)NC(=O)[C@H](CCC(=O)O)NC(=O)CNC(=O)[C@H]([C@@H](C)O)NC(=O)[C@H](CCC(=O)O)NC(=O)[C@@H]2CCCN2C(=O)[C@H](CC(=O)O)NC(=O)[C@H](CC(C)C)NC1=O", "note": "(Ac-CLDPETGEFC-NH2; linker 1-10 via C6F4(1,4-diyl))", "Activity": "Non-Toxic"}, {"smiles": "C[C@@H](O)[C@@H]1NC(=O)[C@H](CCC(=O)O)NC(=O)[C@H](CCC(=O)O)NC(=O)[C@H](CC(=O)O)NC(=O)[C@@H](N)CSSC[C@@H](C(N)=O)NC(=O)[C@H](CCC(=O)O)NC(=O)CNC1=O", "note": "(H-CDEETGEC-NH2; disulfide 1-8)", "Activity": "Non-Toxic"}, {"smiles": "CC(=O)N[C@H]1CSSC[C@@H](C(N)=O)NC(=O)[C@H](Cc2ccccc2)NC(=O)[C@H](CCC(=O)O)NC(=O)CNC(=O)[C@H]([C@@H](C)O)NC(=O)[C@H](CCC(=O)O)NC(=O)[C@H](CCC(=O)O)NC(=O)[C@H](CC(=O)O)NC(=O)[C@H](CC(C)C)NC1=O", "note": "(Ac-CLDEETGEFC-NH2; disulfide 1-10)", "Activity": "Non-Toxic"}, {"smiles": "CC(=O)N[C@H]1CSSC[C@@H](C(N)=O)NC(=O)CNC(=O)[C@H]([C@@H](C)O)NC(=O)[C@H](CCC(=O)O)NC(=O)[C@H](CCC(=O)O)NC1=O", "note": "(Ac-CEETGC-NH2; disulfide 1-6)", "Activity": "Non-Toxic"}, {"smiles": "CC(=O)N[C@H]1CSc2c(F)c(F)c(c(F)c2F)SC[C@@H](C(N)=O)NC(=O)[C@H](CCC(=O)O)NC(=O)CNC(=O)[C@H]([C@@H](C)O)NC(=O)[C@H](CCC(=O)O)NC(=O)[C@@H]2CCCN2C(=O)[C@H](CC(=O)O)NC1=O", "Activity": "Non-Toxic"}, {"smiles": "CC(=O)N[C@H]1CSSC[C@@H](C(N)=O)NC(=O)[C@H](CCC(=O)O)NC(=O)CNC(=O)[C@H]([C@@H](C)O)NC(=O)[C@H](CCC(=O)O)NC(=O)[C@H](CCC(=O)O)NC(=O)[C@H](CC(=O)O)NC1=O", "note": "(Ac-CDEETGEC-NH2; disulfide 1-8)", "Activity": "Non-Toxic"}, {"smiles": "CC(=O)N[C@H]1CSSC[C@@H](C(=O)O)NC(=O)[C@H](CCC(=O)O)NC(=O)CNC(=O)[C@H]([C@@H](C)O)NC(=O)[C@H](CCC(=O)O)NC(=O)[C@H](CCC(=O)O)NC(=O)[C@H](CC(=O)O)NC1=O", "note": "(Ac-CDEETGEC-OH; disulfide 1-8)", "Activity": "Non-Toxic"}]}]}
